“And” between values parts separate entries of the source, which are not always exact repeats. Identical values can stand only once. “Also recorded” adds a separate entry of the source. Like-named read-outs stand apart in the source and are kept apart here.
Tests used:
[1] = Cytotoxicity assay (CellTiter-Glo, 24 h); format: cell-based; details: human, CC50 (50% loss of viability)
[2] = target: T1, HCV NS3 (Hepatitis C virus genotype 2a, UniProt Q99IB8); format: cell-based; details: percentage of DMSO-treated control, 1000 nM (legend; picture prints 500nM)
[3] = target: T2, CRBN (Homo sapiens, UniProt Q96SW2); assay: Competitive displacement assay for cellular CRBN engagement (rescue of dBET6-mediated BRD4BD2-eGFP degradation); format: cell-based; details: co-treated with 100 nM dBET6, 5 h
[4] = target: HCV NS3-eGFP protein fusion (Hepatitis C virus genotype 2a, UniProt Q99IB8); format: cell-based; details: for DC50: 4 h treatment; for degradation of HCV NS3 in the transient assay (in words): increasing concentrations
[5] = tested on: HCV-JFH1-ad; assay: microbe, parasite or virus in culture; format: cell-based, hepatitis C virus
[6] = target: DDB1∆B-CRBN (Homo sapiens, UniProt Q96SW2); assay: CRBN-binding assay (fluorescence polarization, displacement of Atto565-lenalidomide); details: fluorescence polarization competition
Procedure: Measurement of compounds binding to CRBN was performed by fluorescence polarization. […] Compounds were dispensed using a D300e Digital Dispenser (HP), normalized to 1% DMSO, and incubated for 60 min at room temperature. The change in fluorescence polarization was monitored using a PHERAstar FS microplate reader (BMG Labtech) for 20 min in 200 s cycles. […]
Increasing concentrations of compounds were titrated to preformed DDB1∆B-CRBN-lenalidomideAtto565 complex. Data are presented as means normalized to DMSO ± standard deviation of n = 4 technical replicates. […]
d Measurement of NS3/4A protease inhibition in vitro. Cell lysates containing the endogenous NS3/4A protease were prepared from cells stably expressing an HCV […]
subgenomic replicon. […]

[7] = target: T1, HCV NS3; format: cell-based; details: 1000 nM, 4 h
[8] = tested on: HCV-NS3-A156S; assay: microbe, parasite or virus in culture; format: cell-based, hepatitis C virus; details: for change in antiviral potency, NS3-A156S vs wildtype: ratio of IC50 values
[9] = target: T2, CRBN; assay: Cellular thermal shift assay for CRBN engagement (HEK293T cells); format: cell-based; details: 1 h at 37 °C, heated at 61 °C, dose-response
[10] = tested on: wildtype HCV-Jc1; assay: microbe, parasite or virus in culture; format: cell-based, hepatitis C virus
[11] = tested on: HCV NS3; format: cell-based, hepatitis C virus; details: 1000 nM, 4 h; selectivity
[12] = tested on: HCV-NS3-V55A; assay: microbe, parasite or virus in culture; format: cell-based, hepatitis C virus
[13] = tested on: Huh7.5-SGR cells; assay: Cytotoxicity assay (CellTiter-Glo, 24 h); format: cell-based; details: read-out: CC50 (50% loss of viability), single experiments, individual experiments
[14] = average value reported, averaged from n = 2
[15] = single experiments, individual experiments
[16] = Huh7.5 CRBN-/-, HCV-JFH1-ad MOI 0.1, 24 to 48 h post-infection
[17] = wildtype Huh7.5, HCV-JFH1-ad MOI 0.1, 24 to 48 h post-infection
[18] = 500 nM compound + 500 nM lenalidomide, 4 h, Supplementary Fig. 4c
[19] = 500 nM compound + 5000 nM lenalidomide, 4 h, Supplementary Fig. 4c
[20] = 500 nM compound + DMSO, 4 h, Supplementary Fig. 4c
[21] = read-out: NS3-eGFP degradation DC50, average value reported, average of n ≥ 2 independent experiments
[22] = read-out: NS3-eGFP degradation DC50, single experiments, individual experiments (source data)
[23] = Hepatitis C virus, Huh7.5, read-out: antiviral IC50 (50% reduction in viral titers), average value reported, Huh7.5, MOI 0.1, treated 24 to 48 h post-infection, average of n ≥ 2 experiments
[24] = Hepatitis C virus, Huh7.5, read-out: antiviral IC50 (50% reduction in viral titers), single experiments, Huh7.5, MOI 0.1, treated 24 to 48 h post-infection, individual experiments
[25] = read-out: antiviral IC50 (50% reduction in viral titers), single experiments, Huh7.5, MOI 0.1, treated 24 to 48 h post-infection, individual experiments
[26] = 1000 nM compound + 5000 nM lenalidomide, 4 h, Fig. 2d
[27] = 1000 nM compound + DMSO, 4 h, Fig. 2d
[28] = Hepatitis C virus, Huh7.5, read-out: antiviral IC50, NS3-A156S virus, average value reported, Huh7.5, MOI 0.1, treated 24 to 48 h post-infection
[29] = Hepatitis C virus, Huh7.5, read-out: antiviral IC50, NS3-A156S virus, single experiments, Huh7.5, MOI 0.1, treated 24 to 48 h post-infection
[30] = read-out: antiviral IC50, NS3-A156S virus, single experiments, Huh7.5, MOI 0.1, treated 24 to 48 h post-infection
[31] = Hepatitis C virus, Huh7.5, read-out: antiviral IC50, wildtype virus, average value reported, Huh7.5, MOI 0.1, treated 24 to 48 h post-infection
[32] = Hepatitis C virus, Huh7.5, read-out: antiviral IC50, wildtype virus, single experiments, Huh7.5, MOI 0.1, treated 24 to 48 h post-infection
[33] = read-out: antiviral IC50, wildtype virus, single experiments, Huh7.5, MOI 0.1, treated 24 to 48 h post-infection
[34] = Hepatitis C virus, Huh7.5, read-out: antiviral IC50, NS3-V55A virus, average value reported, Huh7.5, MOI 0.1, treated 24 to 48 h post-infection
[35] = Hepatitis C virus, Huh7.5, read-out: antiviral IC50, NS3-V55A virus, single experiments, Huh7.5, MOI 0.1, treated 24 to 48 h post-infection
[36] = read-out: antiviral IC50, NS3-V55A virus, single experiments, Huh7.5, MOI 0.1, treated 24 to 48 h post-infection

| Structure (SMILES) | CC50 at 24 h [1, 14] [nM] | CC50 at 24 h [1, 15] [nM] | relative NS3 levels (normalized to GAPDH), CRBN-/- cells, average [2, 16] [%] | relative NS3 levels (normalized to GAPDH), wildtype cells, average [2, 17] [%] | EC50 [3] [nM] | NS3-eGFP/mCherry ratio normalized to DMSO, average [4, 18] | NS3-eGFP/mCherry ratio normalized to DMSO, single experiments [4, 18] | NS3-eGFP/mCherry ratio normalized to DMSO, average [4, 19] | NS3-eGFP/mCherry ratio normalized to DMSO, single experiments [4, 19] | NS3-eGFP/mCherry ratio normalized to DMSO, average [4, 20] | NS3-eGFP/mCherry ratio normalized to DMSO, single experiments [4, 20] | DC50 [4, 21] [nM] | DC50 [4, 22] | IC50 [5, 23] [nM] | IC50 [5, 24] [nM] | IC50 [5, 25] | degradation of HCV NS3 in the transient assay (in words) ([4]; 4 h) | binding to CRBN (in words) [6] | NS3-eGFP/mCherry ratio normalized to DMSO, average [4, 26] | NS3-eGFP/mCherry ratio normalized to DMSO, single experiments [4, 26] | other results |
| --- | --- | --- | --- | --- | --- | --- | --- | --- | --- | --- | --- | --- | --- | --- | --- | --- | --- | --- | --- | --- | --- |
| CCC[C@H](NC(=O)[C@@H]1[C@H]2CCC[C@H]2CN1C(=O)[C@@H](NC(=O)[C@@H](NC(=O)c1cnc(C(=O)NCCCCCCNc2cccc3c2CN(C2CCC(=O)NC2=O)C3=O)cn1)C1CCCCC1)C(C)(C)C)C(=O)C(=O)NC1CC1 (stereo partly drawn) [DGY-03-081] | > 40000 | > 40000 | 101 | 50 | 576 | 0.71 | 0.72 and 0.71 | 0.84 | 0.85 and 0.83 | 0.65 | 0.65 and 0.64 | 669 | 642 nM and 695 nM | 3070 | 3300 | 2840 nM | – | – | – | – | – |
| CCC[C@H](NC(=O)[C@@H]1[C@H]2CCC[C@H]2CN1C(=O)[C@@H](NC(=O)[C@@H](NC(=O)c1cnc(C(=O)NCCOCCOCCNc2cccc3c2C(=O)N(C2CCC(=O)N(C)C2=O)C3=O)cn1)C1CCCCC1)C(C)(C)C)C(=O)C(=O)NC1CC1 (stereo partly drawn) [DGY-04-035-BUMP] | > 40000 | > 40000 | – | – | – | 0.98 | 0.98 and 0.99 | 0.98 | 1.00 and 0.97 | 0.98 | 0.98 and 0.99 | – | – | – | – | – | neither compound induced degradation of HCV NS3 | Neither DGY-04-035-BUMP nor DGY-08-097-BUMP exhibit detectable binding to CRBN; also recorded: loss of CRBN-binding | – | – | – |
| CCC[C@H](NC(=O)[C@@H]1[C@H]2CCC[C@H]2CN1C(=O)[C@@H](NC(=O)[C@@H](NC(=O)c1cnc(C(=O)NCCOCCOCCNc2cccc3c2C(=O)N(C2CCC(=O)NC2=O)C3=O)cn1)C1CCCCC1)C(C)(C)C)C(=O)C(=O)NC1CC1 (stereo partly drawn) [DGY-04-035] | > 40000 | > 40000 | 87 | 48 | 641 | 0.66 | 0.67 and 0.64 | 0.86 | 0.87 and 0.85 | 0.54 | 0.54 and 0.53 | 489 | 444 nM and 438 nM and 379 nM and 650 nM and 532 nM | – | 2160 | 2650 nM and 3950 nM | – | – | – | – | relative NS3 levels (normalized to GAPDH), CRBN-/- cells, single experiments [2, 16]: 107% and 74% and 80%; relative NS3 levels (normalized to GAPDH), wildtype cells, single experiments [2, 17]: 54% and 46% and 44% |
| CCC[C@H](NC(=O)[C@@H]1[C@H]2CCC[C@H]2CN1C(=O)[C@@H](NC(=O)[C@@H](NC(=O)c1cnc(C(=O)NCCOCCOCCOc2cc3c4c(cccc4c2)C(=O)N(C2CCC(=O)N(C)C2=O)C3=O)cn1)C1CCCCC1)C(C)(C)C)C(=O)C(=O)NC1CC1 (stereo partly drawn) [DGY-08-097-BUMP] | > 40000 | > 40000 | – | – | – | – | – | – | – | – | – | – | – | – | – | – | neither compound induced degradation of HCV NS3 | Neither DGY-04-035-BUMP nor DGY-08-097-BUMP exhibit detectable binding to CRBN; also recorded: loss of CRBN-binding | 0.96 | 0.92 and 1.00 | change of HCV NS3 abundance vs DMSO (in words) [7]: No significant degradation of HCV NS3 or any other cellular protein; also recorded: unaffected; NS3-eGFP/mCherry ratio normalized to DMSO, average [4, 27]: 0.92; NS3-eGFP/mCherry ratio normalized to DMSO, single experiments [4, 27]: 0.92 |
| CCC[C@H](NC(=O)[C@@H]1[C@H]2CCC[C@H]2CN1C(=O)[C@@H](NC(=O)[C@@H](NC(=O)c1cnc(C(=O)NCCOCCOCCOc2cc3c4c(cccc4c2)C(=O)N(C2CCC(=O)NC2=O)C3=O)cn1)C1CCCCC1)C(C)(C)C)C(=O)C(=O)NC1CC1 (stereo partly drawn) [DGY-08-097] | > 40000 | > 40000 | – | – | 703 | – | – | – | – | – | – | 50 | 51 nM and 49 nM and 46 nM and 54 nM | 748 | – | 706 nM and 627 nM and 425 nM and 1230 nM | – | – | 0.60 | 0.62 and 0.58 | IC50 [8, 28]: 1560 nM; IC50 [8, 29]: 2020 nM; change in antiviral potency, NS3-A156S vs wildtype [8]: 3 fold; IC50 [8, 30]: 1110 nM; stabilization of CRBN in cellular thermal shift assay [9]: concentration-dependent stabilization of CRBN; IC50 [10, 31]: 558 nM; IC50 [10, 32]: 630 nM; IC50 [10, 33]: 417 nM and 627 nM; degradation of IMiDs neo-substrates IKZF1 and IKZF3 [11]: no degradation; other proteins significantly affected (of ~8700 quantified) [11]: no other protein of the ~8700 quantified was observed to be significantly affected; NS3-eGFP/mCherry ratio normalized to DMSO, average [4, 27]: 0.24; NS3-eGFP/mCherry ratio normalized to DMSO, single experiments [4, 27]: 0.23 and 0.25; concentrations at which a hook effect was observed in the transient NS3 degradation assay ([4]; 4 h): above 1000 nM; IC50 [12, 34]: 508 nM; IC50 [12, 35]: 403 nM; IC50 [12, 36]: 380 nM and 742 nM |
| CCC[C@H](NC(=O)[C@@H]1[C@H]2CCC[C@H]2CN1C(=O)[C@@H](NC(=O)[C@@H](NC(=O)c1cnccn1)C1CCCCC1)C(C)(C)C)C(=O)C(=O)NC1CC1 [telaprevir, reference compound] | 28000 | 32000 | – | – | – | – | – | – | – | – | – | – | – | 132 | – | 114 nM and 91 nM and 86 nM and 236 nM | – | – | – | – | IC50 [8, 28]: 949 nM; IC50 [8, 29]: 756 nM; change in antiviral potency, NS3-A156S vs wildtype [8]: 10 fold; IC50 [8, 30]: 1140 nM; CC50 [13]: > 40000 nM and 24000 nM; IC50 [10, 31]: 98 nM; IC50 [10, 32]: 110 nM; IC50 [10, 33]: 72 nM and 111 nM; IC50 [12, 34]: 288 nM; IC50 [12, 35]: 190 nM; change in antiviral potency, NS3-V55A vs wildtype ([12]; ratio of IC50 values): 3 fold; IC50 [12, 36]: 304 nM and 372 nM |
